Biological target: T1, Dimer of Gag-Pol polyprotein [501-599] (Human immunodeficiency virus 1, UniProt P03367)
T1 construct: 501-599
Assay: Protease Inhibition Assay
Conditions: pH 5.5; 30 °C
Description: All enzyme assays were performed under initial velocity and steady-state conditions. The conditions for the enzyme catalyzed hydrolysis of the cleavage site peptide VSQN-(beta-naphthylalanine)-PIV were established with respect to time and enzyme concentration to yield linear initial velocity data. […] The detection of product was monitored with fluorescence (excitation 270 nm, emission 330 nm).

SMILES	IC50 [nM]
O=C(N[C@@H](Cc1ccccc1)[C@@H](O)C[C@]1(Cc2ccccc2)N=CC(C2c3ccccc3C[C@H]2O)C1=O)O[C@H]1CCOC1 (stereo partly drawn) [(3S)-oxolan-3-yl N-[(2S,3S)-4-[(2S)-2-benzyl-4-[(2R)-2-hydroxy-2,3-dihydro-1H-inden-1-yl]-3-oxo-2,3-dihydro-1H-pyrrol-2-yl]-3-hydroxy-1-phenylbutan-2-yl]carbamate]	2
O=C(N[C@@H](Cc1ccccc1)[C@@H](O)C[C@@H](Cc1ccccc1)C(=O)NC1c2ccccc2C[C@H]1O)O[C@H]1CCOC1 (stereo partly drawn) [(3S)-oxolan-3-yl N-[(2S,3S,5R)-5-benzyl-3-hydroxy-5-{[(2R)-2-hydroxy-2,3-dihydro-1H-inden-1-yl]carbamoyl}-1-phenylpentan-2-yl]carbamate]	0.03
CC(C)C[C@H](NC(=O)[C@H](Cc1ccccc1)C[C@H](O)[C@H](Cc1ccccc1)NC(=O)OC(C)(C)C)C(=O)N[C@@H](Cc1ccccc1)C(N)=O [Hydroxyethylene dipeptide isostere]	0.6
CC(C)C[C@@]1(C2C=N[C@@](Cc3ccccc3)(C[C@H](O)[C@H](Cc3ccccc3)NC(=O)OC(C)(C)C)C2=O)N=CC([C@@H](Cc2ccccc2)C(N)=O)C1=O (some centres not stated) [Pyrrolinone deriv. 1]	10
CC(C)C[C@@]1(C2C=N[C@@](Cc3ccccc3)(C[C@H](O)[C@H](Cc3ccccc3)NC(=O)O[C@H]3CCOC3)C2=O)N=CC([C@@H](Cc2ccccc2)C(N)=O)C1=O (some centres not stated) [Pyrrolinone deriv. 2]	1.3
CC(C)(C)OC(=O)N[C@@H](Cc1ccccc1)[C@@H](O)C[C@]1(Cc2ccccc2)N=CC(C2c3ccccc3C[C@H]2O)C1=O (some centres not stated) [Pyrrolinone deriv. 6]	11.9
CC(C)(C)OC(=O)N[C@@H](Cc1ccccc1)[C@@H](O)C[C@@H](Cc1ccccc1)C(=O)NC1c2ccccc2C[C@H]1O (stereo partly drawn) [tert-butyl N-[(2S,3S,5R)-5-benzyl-3-hydroxy-5-{[(2R)-2-hydroxy-2,3-dihydro-1H-inden-1-yl]carbamoyl}-1-phenylpentan-2-yl]carbamate]	0.3

Reference: BindingDB's records for doi:10.1021/jm0204587 (University of Pennsylvania, 2003)
